Laboratory results as given in US20030157200A1, “Use of oligosaccharides to stimulate beta-endorphin production” (priority 2000, published 2003).

System: normal human keratinocytes
Test: Synthesis/secretion of β-endorphin by normal human keratinocytes, assayed by EIA
Format: cell-based
Conditions: 24 h; for effect on the production of β-endorphin by normal human keratinocytes (in words): normal human keratinocytes in culture
Protocol: Norman human keratinocytes are cultivated to the point of confluence on a 24-well plate and then incubated in a culture medium for 24 hours in the presence of dibutiryl CAMP (2 mM), interleukin-1β (IL-1β) (500 pg/ml) and the test product, i.e. in this case either Tephrosia purpurea extracts according to Example 1, or stachyose, or ciceritol, at the doses indicated in Tables I, II and III respectively.
Each Tephrosia extract obtained by the process of Example 1 is provided accurately weighed and redissolved at a concentration of 50 mg/ml in an ethanol/water mixture (1/1).
Antiproteases—aprotinin 5 μg/ml, leupeptin 1 μg/ml and PMSF 1 mM —are added to each well in order to limit the action of the proteases.
Each experimental point is duplicated.
After incubation for 24 h, the culture supernatants are recovered and frozen at −80° C.
Positive stimulation controls are carried out in parallel, the cells being treated for 24 h, as above, with either IL-1β 500 pg/ml or dibutyryl CAMP 2 mM.
The β-endorphin secreted is assayed by EIA (kit from Peninsula Laboratoiries) and expressed in pg/ml.
The procedure followed is the same as in the experiments with Tephrosia purpurea extracts except that stachyose and ciceritol are used at the doses indicated in Table II, and the results obtained are indicated in Table II below.

## IL-1β: interleukin-1β, positive stimulation control
500 pg/ml, positive control, Table I batch B1 block, Control 3 ± 4
  β-endorphin secreted: 35 ± 5 pg/mL
500 pg/ml, positive control, Table I batch B2 experiment, Control 3 ± 4
  β-endorphin secreted: 35 ± 5 pg/mL
500 pg/ml, positive control, Table I batch B3 first series, Control 1 ± 1
  β-endorphin secreted: 17 ± 3 pg/mL
500 pg/ml, positive control, Table I batch B3 second series, Control 1 ± 3
  β-endorphin secreted: 25 ± 4 pg/mL
500 pg/ml, positive control, Table II ciceritol first series, Control 1 ± 2
  β-endorphin secreted: 17 ± 3 pg/mL
500 pg/ml, positive control, Table II ciceritol second series, Control 3 ± 3
  β-endorphin secreted: 35 ± 3 pg/mL
500 pg/ml, positive control, Table II stachyose experiment, Control 10 ± 3
  β-endorphin secreted: 25 ± 4 pg/mL
  effect on the production of β-endorphin by normal human keratinocytes (in words): stimulated the production of β-endorphin

## CCCC(=O)Nc1ncnc2c1ncn2[C@@H]1O[C@@H]2COP(=O)(O)O[C@H]2[C@H]1OC(=O)CCC [dibutyryl cAMP]
2 mM, positive control, Table I batch B1 block, Control 3 ± 4
  β-endorphin secreted: 87 ± 12 pg/mL
2 mM, positive control, Table I batch B2 experiment, Control 3 ± 4
  β-endorphin secreted: 87 ± 12 pg/mL
2 mM, positive control, Table I batch B3 first series, Control 1 ± 1
  β-endorphin secreted: 10 ± 1 pg/mL
2 mM, positive control, Table I batch B3 second series, Control 1 ± 3
  β-endorphin secreted: 22 ± 1 pg/mL
2 mM, positive control, Table II ciceritol first series, Control 1 ± 2
  β-endorphin secreted: 10 ± 1 pg/mL
2 mM, positive control, Table II ciceritol second series, Control 3 ± 3
  β-endorphin secreted: 87 ± 8 pg/mL
2 mM, positive control, Table II stachyose experiment, Control 10 ± 3
  β-endorphin secreted: 22 ± 1 pg/mL
  effect on the production of β-endorphin by normal human keratinocytes (in words): stimulated the production of β-endorphin

## OC[C@H]1O[C@H](OC[C@H]2O[C@H](OC[C@H]3O[C@H](O[C@]4(CO)O[C@H](CO)[C@@H](O)[C@@H]4O)[C@H](O)[C@@H](O)[C@@H]3O)[C@H](O)[C@@H](O)[C@H]2O)[C@H](O)[C@@H](O)[C@H]1O [Stachyose, O-α-D-galactopyranosyl-[1→6]-O-α-D-galactopyranosyl-[1→6]-β-D-fructofuranosyl-α-D-glucopyranoside]
20 ng/ml, Table II stachyose experiment, Control 10 ± 3
  β-endorphin secreted: 16 ± 1 pg/mL
100 ng/ml, Table II stachyose experiment, Control 10 ± 3
  β-endorphin secreted: 22 ± 2 pg/mL
500 ng/ml, Table II stachyose experiment, Control 10 ± 3
  β-endorphin secreted: 30 ± 13 pg/mL
  effect on the production of β-endorphin by normal human keratinocytes (in words): stimulating effect

## CO[C@H]1[C@H](O)[C@@H](O[C@H]2O[C@H](CO[C@H]3O[C@H](CO)[C@H](O)[C@H](O)[C@H]3O)[C@H](O)[C@H](O)[C@H]2O)[C@@H](O)[C@H](O)[C@@H]1O [Ciceritol, O-α-D-galactopyranosyl-[1→6]-O-α-D-galactopyranosyl-[1→2]-4-O-methyl-D-chiroinositol]
20 ng/ml, Table II ciceritol first series, Control 1 ± 2
  β-endorphin secreted: 8 ± 3 pg/mL
64 ng/ml, Table II ciceritol second series, Control 3 ± 3
  β-endorphin secreted: 44 ± 7 pg/mL
100 ng/ml, Table II ciceritol first series, Control 1 ± 2
  β-endorphin secreted: 8 ± 4 pg/mL
500 ng/ml, Table II ciceritol first series, Control 1 ± 2
  β-endorphin secreted: 9 ± 5 pg/mL
  effect on the production of β-endorphin by normal human keratinocytes (in words): stimulating effect
